Legend:
HEK-293T cells = experiment: Lentiviral transduction enhancement in HEK-293T cells (GFP+ cells by flow cytometry); assay type: cell-based, human; settings: for transduction enhancing activity: K18-derived peptides at 1 µM compared with commercial TE, MOI = 1 (Figure 3)
Protocol: (§1) To carry out the transduction enhancement assays, 3000 cells (HEK-293T or NIH/3T3, both purchased at the ATCC) were seeded in 100 µL of culture medium (consisting of Dulbecco's Modified Eagle Medium (high glucose) (DMEM, Gibco™), supplemented with 10% fetal bovine serum (FBS), 1% L-glutamine and 1% penicillin/streptomycin (P/S) (both from Cultek S.L.U.), per well, in culture-treated flat-bottomed 96-well plates, and incubated for 24 h at 37° with 5% CO2 and 100% relative humidity.
(§2) The vector was diluted in complete medium, and the appropriate amounts were added to each well at the chosen MOI into a final volume of 200 µL per well, in the absence or presence of the chosen TE (peptides, LB, VF-1, PS, RN, PGE2) at different concentrations and following the manufacturer's recommendations. The culture medium was changed 24 h after transduction and the cells were incubated for 48 h more until the plate was analyzed 3 days post-transduction by flow cytometry.
All experiments included a non-transduced control (cells only) without vector exposure, and a control with vectors but without TE (basal transduction). In all assays, a minimum of three replicates (technical replicates) were performed per experimental condition, and were repeated a minimum of three times (experimental replicates) for statistical analysis.
Transduction efficiency was analyzed using an LSR Fortessa cell analyzer (Becton, Dickinson, New Jersey, USA), after 3, 7 or 14 days post-transduction (depending on the target cell type). First, cells were transferred using a multichannel pipette to a U-bottom 96-well plate. Live and dead cells were dis-criminated using 1 µg/mL 7-amino-actinomycin D (7-AAD).
To analyze the transduction efficacy and cytotoxicity of the compounds used, different gates of analysis were defined. Samples of transduced cells (labeled and unlabeled with PI or 7-AAD), with a minimum of 10.000 events in the relevant gate, were acquired. Further, appropriate thresholds were established to define the cell populations. Four final gates were created and applied sequentially: • Gate 1. Plotting forward scatter high or FSC-H (Forward scatter height) versus forward scatter area or FSC-A (Forward scatter area). Here single events were gated to eliminate doublets. • Gate 2. Plotting the Side scatter area (SSC-A) against the Forward scatter area (FSC-A). This gate was used to eliminate cellular debris and atypical and undesired events, taking into account their morphology and complexity. • Gate 3. Thanks to the labeling of the cells with PI or 7-AAD it was possible to calculate the percentage of dead cells and eliminate them from the study. Only live cells were considered for the subsequent analysis gate. • Gate 4. The percentage of live transduced cells was obtained using eGFP fluorescence (FL1). As an additional parameter, the Mean Fluorescence Intensity (MFI) of the transduced cells was measured. The MFI is the mean of all fluorescence intensities of individual cells (or events) in a desired population. In our case, the MFI values obtained represented the mean fluorescence level of eGFP in the transduced cells (gate 4). All data were obtained and analyzed using FACSDiva software v6.2 and FlowJo v10 software (both from BD Biosciences).

NIH/3T3 cells = experiment: Lentiviral transduction enhancement in NIH/3T3 cells (GFP+ cells and living cells by flow cytometry); assay type: cell-based, murine; settings: micellar peptide at 1 µM; MOI = 1; GFP+ cells 72 h after vector exposure; compared with other TEs (Figure 1)
Protocol: as §1
as §2, with “cytometry. […]” for “cytometry.”
(§3) Transduction efficiency was analyzed using an LSR Fortessa cell analyzer (Becton, Dickinson, New Jersey, USA), after 3, 7 or 14 days post-transduction (depending on the target cell type). […]
To analyze the transduction efficacy and cytotoxicity of the compounds used, different gates of analysis were defined. […] The percentage of live transduced cells was obtained using eGFP fluorescence (FL1). […]

[1] = concentrations higher than 10-15 µM; dose-dependent
Protocol: Studies with the fluorochrome Yo-Pro-1 were performed at the laboratory of Dr. Pablo Pelegrin, at the University of Murcia.

CD4^+ T cells = experiment: Lentiviral (anti-CD19 CAR) transduction enhancement in CD4+ T cells (flow cytometry); assay type: cell-based, human; settings: 72 h after transduction; differences between the four compounds not statistically significant (Figure 6)
Protocol: • 1. After isolation and activation of the CD4^+ T cells, a suspension of 10^6 cells/mL was prepared and 100 µL were added per well to a 96-well flat-bottom plate and incubated at 37°C, 5% CO2, and 100% relative humidity. After 24 h in culture, the vector was diluted to the desired concentration and mixed with the different TEs (peptides, LB, VF-1, PS, PGE2), and 50 µL per well of the vector-TEs solution was added. The A3B1:CD8:4-1BB:CD3ζ (also named ARI001-CodonOptimized3 vector), a third generation lentiviral vector encoding an anti-human CD19 CAR, was used for this assay. • 2. After 72 h post-transduction, samples were collected and stained for flow cytometry analysis: First, the entire plate contents were transferred to a pre-labeled 96-well roundbottom plate. Two washes were performed with 1X PBS, adding 100 µL per well and centrifuging the plate for 2' at 2000 rpm. In the last wash, the supernatant was discarded, and 100 µL of a working solution of eFluor™ 450 - Fixable Viability Dye Live/Dead (eBioscience™) was added and incubated for 30' at RT. • 3. Two washes were performed with 200 µL of FACS buffer (PBS 1X + 3% FBS). […] Finally, transduction efficiency was analyzed by flow cytometry to determine the percentage of CAR-positive T cells.

NK cells = experiment: Lentiviral transduction enhancement in primary NK cells (flow cytometry); assay type: cell-based, human; settings: MOI = 5; for fold changes: fold change relative to basal transduction, 1.5 µM
Protocol: • 1. Total blood samples were collected and processed in less than 4 h. After obtaining the peripheral blood mononuclear cells (PBMCs) by density gradient centrifugation (Ficoll), NK cells (following the instructions of the Miltenyi Biotec isolation kit) from human they were seeded in a 24-well plate [10^6 cells per well in 1 mL of complete medium (NK MACS supplemented with 5% AB serum (Tebu-Bio, Le Perray, France), recombinant human IL-2 (rhIL-2) and recombinant human IL-15 (rhIL-15), both from Miltenyi Biotec)], and incubated at 37°C, 5% CO2, and 100% relative humidity. • 2. After 48 h in culture, cells were counted, and about 40,000 cells were seeded in 100 µL of complete medium (per well) in culture-treated 96-well flat-bottom plate. The transduction process was performed as follows: • 3. Calculate the required volume of lentiviral vector for a known number of NK cells and desired MOI, and the vector diluted in complete medium. Simultaneously, prepare all the enhancers to be used in the assay (micellar peptides, LB, PS, VF-1, etc.) at the concentrations recommended by the manufacturers. […] At days 3, 7 and 14 post-transduction, the cells were analyzed by flow cytometry.
as §3
To analyze the transduction efficacy and cytotoxicity of the compounds used, different gates of analysis were defined. […] The percentage of live transduced cells was obtained using eGFP fluorescence (FL1). As an additional parameter, the Mean Fluorescence Intensity (MFI) of the transduced cells was measured. The MFI is the mean of all fluorescence intensities of individual cells (or events) in a desired population. In our case, the MFI values obtained represented the mean fluorescence level of eGFP in the transduced cells (gate 4). All data were obtained and analyzed using FACSDiva software v6.2 and FlowJo v10 software (both from BD Biosciences).

CD34^+ cells = experiment: Lentiviral transduction enhancement in CD34+ hematopoietic cells (flow cytometry); assay type: cell-based, human; settings: peptides at 3 µM, LB 5 mg/mL; MOI = 1; days 3, 7 and 14 after transduction; only K18-8R and LentiBoost statistically significant vs basal transduction (Figure 4)
Protocol: • 1. The CD34^+ cells were isolated from apheresis products from healthy donors and cryopreserved in liquid nitrogen until use. Cells were then thawed, counted with trypan blue, and seeded in culture-treated 96-well flat-bottom plates, about 50.000 cells per well in 100 µL of complete StemSpan™ SFEM Hematopoietic Cell Culture Medium (SFEM medium) (Stem Cell Technologies™, Vancouver, Canada), and incubated at 37°C, 5% CO2 and 100% relative humidity. The complete medium was supplemented with recombinant human stem cell factor (rhSCF), recombinant human flt3 ligand (rhFlt3-L) and recombinant human thrombopoietin (rhTpo) (all from EuroBioScience, Friesoythe, Germany). • 2. After 24 h in culture, the cells were transduced as follow: Previously, the required volume of lentiviral vector was calculated in accordance with the vector titer, the CD34^+ target cell number and the desired MOI. Prior to its use, the vector was diluted in complete SFEM medium. • 3. […] Finally, at 3, 7 and 14 days post-transduction, the cells were analyzed by flow cytometry and the plates were stored at -80° for future analyses.
as §3

Antimicrobial activity = assay type: cell-based; settings: concentrations higher than 10-15 µM; dose-dependent

Question: Which transduction enhancing activity (HEK-293T cells) does the source give for “LLNIKVKLEAEIATYRRLLE (poloxamer F-127 micelles) [K18, conjugated to poloxamer F-127 polymeric micelles]” here?
Answer: highest activity

Question: Which transduction enhancing activity (NIH/3T3 cells) does the source give for “LLNIKVKLEAEIRRRRRRRR (poloxamer F-127 micelles) [K18-8R, first 12 amino acids of K18 plus an 8R tail; conjugated to poloxamer F-127 polymeric micelles]” here?
Answer: highest transduction enhancing activity

Question: What about the “transduction enhancing activity at higher concentrations” value (HEK-293T cells; 5 µM or more, MOI 1 and 5, perhaps due to toxicity (Figure 2)) of the same sequence?
Answer: decreased

Question: What about the transduction enhancing activity (HEK-293T cells) of the same sequence?
Answer: highest activity

Question: What about the transduction enhancement (HEK-293T cells; peptide at 1 µM, MOI 1 and 5, experiment made only once (Figure 2)) of the same sequence?
Answer: highest transduction enhancement

Question: And the cytotoxic activity [1]?
Answer: predominated

Question: And the hemolytic activity [1]?
Answer: predominated

Question: And the transduction efficiency (CD4^+ T cells)?
Answer: highest transduction efficiency

Question: And the fold changes (NK cells; day 3)?
Answer: 2.2

Question: And the fold changes (NK cells; day 14)?
Answer: 3.5

Question: And the enhancing activity (NK cells; peptides at 1.5 µM, compared with scrambled control, micelle alone and LB (Figure 7))?
Answer: highest enhancing activity

Question: And the “enhancing efficacy (transduction efficiencies by flow cytometry)” value (CD34^+ cells)?
Answer: highest enhancing efficacy

Question: And the antimicrobial activity (Antimicrobial activity)?
Answer: predominated

Question: For “LLNKEIKIEVALARRRRRRRR (polymeric micelles) [Sc-K18-8R, conjugated to polymeric micelles, reference compound]”, which “enhancing efficacy (transduction efficiencies by flow cytometry)” value (CD34^+ cells) is on record?
Answer: significant enhancing activity

Question: For LLNVKMALDIEIRRRRRRRR [DIF-P-8R], which enhancing activity (HEK-293T cells; several concentrations, MOI 1 and 5, experiment made only once (Figure 2)) is on record?
Answer: enhancing activity, that was higher at 5-15 µM than at 1 µM

Source: patent EP4656207A1, “IN VITRO METHOD FOR T[…] TARGET CELL” (Fundació Hospital Universitari Vall Hebron - Institut de …, priority 2024, dated 2025)
